Among the test systems are SF-539 CNS; RPMI-8226 leukemia; UO-31 renal; T-47D breast; IGROV1 ovarian; SN12C renal; NCI-H460 lung; KM12 colon; HOP-92 NSCLC; SR leukemia.
Holding throughout (experiment): NCI anticancer screen, dose series, 48 h

Each structure is given as a SMILES string.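 How tested: cells in 96-well plates exposed to compound for 48 hours at five concentrations. Here, GI50 denotes the concentration required for 50% inhibition of growth. TGI is the concentration that stops growth completely.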 Where only a bound is given, the exact number is not on record here.

Regarding `COc1cccc(C2=C(c3cn(C)c4cc(F)ccc34)C(=O)NC2=O)c1`, the GI50 with SF-539 CNS was more than 25 µM; with RPMI-8226 leukemia it was more than 17.4 µM; in the experiment on UO-31 renal it was 9.19 µM; in the experiment with T-47D breast it was 15.3 µM; with IGROV1 ovarian, more than 25 µM; with SN12C renal, more than 21.5 µM. The GI50 in the experiment on NCI-H460 lung was more than 18.6 µM; in the experiment with KM12 colon, more than 17.4 µM; with HOP-92 NSCLC it was more than 25 µM; in the experiment on SR leukemia, 6.72 µM. Also, the TGI in the experiment with SF-539 CNS, in the experiment on RPMI-8226 leukemia, with UO-31 renal, in the experiment with T-47D breast, in the experiment on IGROV1 ovarian and in the experiment on SN12C renal was more than 25 µM throughout. The TGI with NCI-H460 lung, with KM12 colon, in the experiment with HOP-92 NSCLC and in the experiment on SR leukemia was more than 25 µM throughout.
As for `NC(Cc1c[nH]c2ccc(F)cc12)C(=O)O` (configuration not stated), the GI50 with SF-539 CNS is 506 µM; with RPMI-8226 leukemia, 1240 µM; in the experiment on UO-31 renal it was 444 µM; with T-47D breast, 1730 µM; with SN12C renal, 918 µM; in the experiment on NCI-H460 lung it was 730 µM. The values for the GI50 with KM12 colon and in the experiment on SR leukemia were 760 µM and 1200 µM, respectively. Moreover, the TGI is 1590 µM with SF-539 CNS; more than 2500 µM with RPMI-8226 leukemia; 1950 µM in the experiment on UO-31 renal; more than 2500 µM in the experiment on T-47D breast; more than 2500 µM with SN12C renal; more than 2500 µM in the experiment on NCI-H460 lung. The TGI with KM12 colon, in the experiment on HOP-92 NSCLC and with SR leukemia was more than 2500 µM throughout.
`CCN(CC)c1ccc(C2NC(=O)c3ccccc3N2)cc1` (configuration not stated): the TGI in the experiment on SF-539 CNS was 8.68 µM; in the experiment with RPMI-8226 leukemia it was more than 100 µM; in the experiment with UO-31 renal it was more than 100 µM; with T-47D breast it was more than 100 µM; in the experiment on IGROV1 ovarian, more than 100 µM; with SN12C renal, more than 100 µM. The TGI is 7.14 µM in the experiment with NCI-H460 lung, 66.5 µM in the experiment with HOP-92 NSCLC and more than 100 µM in the experiment with SR leukemia.
Turning to `COc1c(O)cc2c(c1O)C(=O)C1=C(CCCC1)C2=O`, the TGI amounted to 44 µM in the experiment on SF-539 CNS; 32.6 µM in the experiment with RPMI-8226 leukemia; 43.8 µM in the experiment with UO-31 renal; 50.2 µM in the experiment on T-47D breast; 43.8 µM with IGROV1 ovarian; 58.3 µM in the experiment with SN12C renal. The TGI with NCI-H460 lung was determined as 73.4 µM; with KM12 colon, 65.5 µM; with HOP-92 NSCLC it was 82.7 µM; in the experiment with SR leukemia, 34.2 µM.
In the case of `CCCCN=C(N)c1ccc(N2CCCN(c3ccc(C(N)=NCCCC)cc3)CC2)cc1`, the GI50 was 7.34 µM with SF-539 CNS; 5.37 µM with RPMI-8226 leukemia; more than 66.1 µM in the experiment with UO-31 renal; 10.9 µM with T-47D breast; 24.5 µM with IGROV1 ovarian; 16.6 µM in the experiment on SN12C renal. Also, the GI50 is 4.15 µM in the experiment on NCI-H460 lung, 5.72 µM in the experiment with KM12 colon, 14.6 µM in the experiment with HOP-92 NSCLC and 1.36 µM in the experiment with SR leukemia. Moreover, the TGI is more than 50.1 µM in the experiment on SF-539 CNS; more than 59.8 µM in the experiment with RPMI-8226 leukemia; more than 100 µM with UO-31 renal; more than 100 µM in the experiment on T-47D breast; more than 85.9 µM in the experiment with IGROV1 ovarian; more than 100 µM in the experiment with SN12C renal. The TGI in the experiment with NCI-H460 lung is 97.6 µM; with KM12 colon, 47.8 µM; with HOP-92 NSCLC it was more than 84 µM; in the experiment with SR leukemia, 4.44 µM.
Regarding `COc1ccc(Cn2cc3c(c2)-c2oncc2CC3)cc1OC`, the GI50 in the experiment on SF-539 CNS was 0.14 µM; in the experiment on RPMI-8226 leukemia, 0.19 µM; with UO-31 renal, 0.272 µM; in the experiment with T-47D breast, 0.267 µM; in the experiment on IGROV1 ovarian it was 0.391 µM; in the experiment on SN12C renal, 0.331 µM. Moreover, the GI50 was 0.161 µM with NCI-H460 lung, 0.18 µM in the experiment on KM12 colon, 1.15 µM in the experiment with HOP-92 NSCLC and 0.164 µM with SR leukemia. Also, the TGI was 0.559 µM in the experiment on SF-539 CNS; 23.8 µM in the experiment with UO-31 renal; more than 19.3 µM with T-47D breast; more than 46.3 µM in the experiment on IGROV1 ovarian; more than 50 µM in the experiment with SN12C renal; 0.89 µM in the experiment with NCI-H460 lung. Further, the TGI was determined as 1.27 µM in the experiment on KM12 colon and 36.3 µM in the experiment with HOP-92 NSCLC.
In the case of `CCN(CC)CCN1C(=O)C2C3C(=O)CC(C)(CC3C)C2C1=O` (configuration not stated), the GI50 in the experiment on SF-539 CNS, in the experiment with UO-31 renal, in the experiment with T-47D breast, with IGROV1 ovarian, in the experiment with SN12C renal and in the experiment with KM12 colon was more than 100 µM throughout. The GI50 in the experiment with HOP-92 NSCLC and with SR leukemia was more than 100 µM each time. Besides, the TGI in the experiment on SF-539 CNS, with UO-31 renal, in the experiment with T-47D breast, with IGROV1 ovarian, with SN12C renal and with KM12 colon was more than 100 µM in each case. The TGI with HOP-92 NSCLC and in the experiment on SR leukemia was more than 100 µM in each case.
For the molecule `CCCCCCCCCC(CCCC(O)CC(=O)O)OC1OC(COC2OC(C)C(OC(C)=O)C(O)C2O)C(O)C(O)C1OC1OC(CO)C(O)C(O)C1OC1OC(C)C(OC(=O)CC(C)C)C(O)C1O` (configuration not stated), the GI50 in the experiment on SF-539 CNS, with RPMI-8226 leukemia, with UO-31 renal, in the experiment with T-47D breast, with IGROV1 ovarian and with SN12C renal was more than 35 µM in each case. Besides, the GI50 in the experiment on NCI-H460 lung, with KM12 colon and in the experiment on SR leukemia was more than 35 µM throughout. For the same molecule, the TGI with SF-539 CNS, in the experiment with RPMI-8226 leukemia, with UO-31 renal, in the experiment on T-47D breast, with IGROV1 ovarian and with SN12C renal was more than 35 µM throughout. Also, the TGI in the experiment with NCI-H460 lung, with KM12 colon and in the experiment with SR leukemia was more than 35 µM in each case.
Regarding `C/C(=N\n1c(O)c(C#N)cc(C#N)c1=O)c1ccncc1`, the GI50 in the experiment on RPMI-8226 leukemia, in the experiment with UO-31 renal, with T-47D breast, in the experiment on IGROV1 ovarian, with SN12C renal and in the experiment on NCI-H460 lung was more than 100 µM throughout. Also, the GI50 in the experiment on KM12 colon, with HOP-92 NSCLC and with SR leukemia was more than 100 µM throughout. For the same molecule, the TGI in the experiment on RPMI-8226 leukemia, with UO-31 renal, in the experiment on T-47D breast, with IGROV1 ovarian, in the experiment on SN12C renal and with NCI-H460 lung was more than 100 µM in each case. Moreover, the TGI in the experiment with KM12 colon, with HOP-92 NSCLC and with SR leukemia was more than 100 µM each time.
In the case of `COc1cccc2nc3ccccc3nc12`, the TGI in the experiment on SF-539 CNS was more than 100 µM; in the experiment on RPMI-8226 leukemia, 69.1 µM; with UO-31 renal it was 72.3 µM; with T-47D breast, more than 100 µM; with SN12C renal, more than 100 µM; in the experiment on NCI-H460 lung it was more than 100 µM. Besides, the TGI with KM12 colon is more than 100 µM; with HOP-92 NSCLC it was 78.1 µM; in the experiment with SR leukemia, more than 100 µM.
`O=C(CCl)Nc1cc(Cl)c(Cl)cc1Cl`: the TGI is 3.04 µM in the experiment on SF-539 CNS; more than 10 µM with RPMI-8226 leukemia; 5.59 µM in the experiment on T-47D breast; 3.3 µM in the experiment on IGROV1 ovarian; 2.96 µM in the experiment on SN12C renal; 7.04 µM in the experiment on NCI-H460 lung. Moreover, the TGI was 0.83 µM in the experiment on KM12 colon and more than 10 µM with SR leukemia.
On to `CCOC(=O)c1c(NC(=O)c2ccccc2)sc2c3c(ccc12)OCN(C)C3`, for which the GI50 with SF-539 CNS is 1.63 µM; with RPMI-8226 leukemia, 1.69 µM; in the experiment with UO-31 renal, 1.36 µM; in the experiment with T-47D breast, 1.76 µM; in the experiment on IGROV1 ovarian, 1.64 µM; in the experiment on SN12C renal, 1.63 µM. Further, the results for the GI50 in the experiment with NCI-H460 lung, in the experiment on KM12 colon and in the experiment with HOP-92 NSCLC were 1.87 µM, 1.75 µM and 1.2 µM, respectively. Also, the TGI in the experiment with SF-539 CNS came out at 3.05 µM; in the experiment with RPMI-8226 leukemia, 3.87 µM; in the experiment with UO-31 renal it was 2.74 µM; in the experiment with T-47D breast, 3.78 µM; with IGROV1 ovarian it was 3.18 µM; with SN12C renal, 3.22 µM. The TGI in the experiment with NCI-H460 lung was determined as 3.53 µM; in the experiment with KM12 colon it was 3.3 µM; in the experiment with HOP-92 NSCLC, 2.68 µM.
For the molecule `COc1ccc(C(=O)O[C@H]2[C@H](O[C@H]3[C@@H](O)COC(O[C@H]4C[C@H]5[C@@H]6CC=C7C[C@@H](O)CC[C@]7(C)[C@H]6CC[C@]5(C)[C@H]4[C@H](C)C(=O)CCC(C)C)[C@@H]3OC(C)=O)OC[C@@H](O)[C@@H]2O)c(C)c1` (some centres not stated), the GI50 in the experiment with SF-539 CNS is less than 0.01 µM; with UO-31 renal, less than 0.01 µM; in the experiment with T-47D breast, 0.0133 µM; in the experiment on IGROV1 ovarian, 0.0723 µM; with SN12C renal it was 11.7 µM; in the experiment on NCI-H460 lung, less than 0.01 µM. The GI50 is 0.0674 µM in the experiment with KM12 colon, less than 0.01 µM in the experiment with HOP-92 NSCLC and less than 0.01 µM in the experiment with SR leukemia. The TGI in the experiment on SF-539 CNS was less than 0.01 µM; in the experiment on UO-31 renal, 0.0335 µM; in the experiment on T-47D breast it was 19.1 µM; in the experiment with IGROV1 ovarian, 48.9 µM; in the experiment with SN12C renal, 29.7 µM; in the experiment on NCI-H460 lung, 3.23 µM. For the same molecule, the TGI is 21.3 µM in the experiment with KM12 colon, 0.0866 µM in the experiment on HOP-92 NSCLC and more than 100 µM with SR leukemia.
`C[C@H](CS)C(=O)N1c2ccccc2C[C@H]1C(=O)O`: the TGI in the experiment on SF-539 CNS, in the experiment with UO-31 renal, with T-47D breast, in the experiment with IGROV1 ovarian, in the experiment with SN12C renal and in the experiment on NCI-H460 lung was more than 100 µM throughout. In addition, the TGI in the experiment with KM12 colon and in the experiment on SR leukemia was more than 100 µM each time.

The values are drawn from PubChem BioAssay (NCI).
